Consider one compound from paper PMC12473897 (Toxics, 2025).

Structures are written as SMILES.

The test system of the test is T1, Coptodon zillii liver rhodanese.
T1 construct: gene tst
The following applies: co-substrate KCN; standard assay borate pH 9.4, 37 °C; 5-50 mM range.

With `O=S(O)(O)=S` [sodium thiosulphate], the Km (as a rule, the concentration of substrate that gives half-maximal velocity) worked out at 20 mM.
